Source: paper PMC4710893 (ACS Combinatorial Science, 2015)
Where “and” joins values, the source holds several entries; their conditions need not be identical. Equal values may be shown once.

What was measured:
[1] = molecular target: T1, K-Ras G12V (Homo sapiens, UniProt P01116, G12V); assay: FA-based competition assay with DCAI; format: binding
[2] = molecular target: K-Ras; settings: read-out: KD, DCAI binding to K-Ras; cited from earlier work
[3] = system: p-Akt at Thr308; assay: Immunoblot of Akt phosphorylation in H1299 cells; format: cell-based, human; settings: H1299, 0-18 μM for 12 h, EGF 50 ng/mL 10 min
[4] = molecular target: T1, K-Ras G12V; assay: Fluorescence anisotropy; format: binding
[5] = system: H441 human lung cancer cells; assay: MTT cell viability assay, H441; format: cell-based; settings: 0-40 μM
[6] = system: H1299 lung cancer cell line; assay: MTT cell viability assay, H1299; format: cell-based, human; settings: H1299 (Q61K N-Ras), 24 h
[7] = system: H1299 cells; assay: Live-cell confocal microscopy of internalization; format: cell-based, human; settings: H1299, 5 μM FITC-labeled peptide, 2 h
[8] = system: H1299 cells; assay: Cellular uptake by flow cytometry; format: cell-based, human
[9] = system: p-MEK; assay: Immunoblot of MEK phosphorylation in H1299 cells; format: cell-based, human; settings: H1299, 0-18 μM for 12 h, EGF 50 ng/mL 10 min

Compound	IC50 [1]	Kd [2]	reduction of EGF-induced p-Akt level [3]	lower affinity than peptide 49 ([4]; K-Ras G12V, peptide lacking the DCAI moiety)	Kd ([4]; read-out: KDapp, FA, FITC-labeled peptide 100 nM, K-Ras G12V as purified from E. coli, mixture of GTP- and GDP-bound forms)	reduction in cell viability [5]	LD50 [6]	internalization / intracellular distribution [7]	cell entry efficiency, fold lower than cFΦR4 ([8]; H1299, 5 μM FITC-labeled peptide, 2 h)	cell permeability ([8]; tested for cellular uptake)	reduction of EGF-induced p-MEK level [9]
Cc1[nH]c2cc(Cl)cc(Cl)c2c1CCN [DCAI, 4,6-dichloro-2-methyl-3-aminoethylindole]	840 ± 220 µM	1100 µM and ~1100 µM									
bicyclo [Tm-Ala-leu-Phe-Arg-asn-Pra-Ile-Asp-Lys-Phe-Nal-Arg-Arg-Arg-Arg-Dap]-Lys [peptide 54]			no effect	~80 fold	17 ± 11 µM	significant reduction in cell viability only at the highest inhibitor concentration tested	> 40 µM	largely similar intracellular distribution	~3 fold	readily cell permeable	no effect
